Test results from patent US20240116985A1, “STAPLED PEPTIDES AND METHODS THEREOF” (priority 2020, published 2024).
Read-outs that look alike come from different tables or passages of the source. Each block holds one compound with its values, some of them ahead of it.

Molecular target: T1, full-length beta-Catenin (Uniprot ID P35222) (Homo sapiens, UniProt P35222)
T1 construct: 10 nM full-length beta-Catenin (Uniprot ID P35222)
T1 sequence (P35222 1-781): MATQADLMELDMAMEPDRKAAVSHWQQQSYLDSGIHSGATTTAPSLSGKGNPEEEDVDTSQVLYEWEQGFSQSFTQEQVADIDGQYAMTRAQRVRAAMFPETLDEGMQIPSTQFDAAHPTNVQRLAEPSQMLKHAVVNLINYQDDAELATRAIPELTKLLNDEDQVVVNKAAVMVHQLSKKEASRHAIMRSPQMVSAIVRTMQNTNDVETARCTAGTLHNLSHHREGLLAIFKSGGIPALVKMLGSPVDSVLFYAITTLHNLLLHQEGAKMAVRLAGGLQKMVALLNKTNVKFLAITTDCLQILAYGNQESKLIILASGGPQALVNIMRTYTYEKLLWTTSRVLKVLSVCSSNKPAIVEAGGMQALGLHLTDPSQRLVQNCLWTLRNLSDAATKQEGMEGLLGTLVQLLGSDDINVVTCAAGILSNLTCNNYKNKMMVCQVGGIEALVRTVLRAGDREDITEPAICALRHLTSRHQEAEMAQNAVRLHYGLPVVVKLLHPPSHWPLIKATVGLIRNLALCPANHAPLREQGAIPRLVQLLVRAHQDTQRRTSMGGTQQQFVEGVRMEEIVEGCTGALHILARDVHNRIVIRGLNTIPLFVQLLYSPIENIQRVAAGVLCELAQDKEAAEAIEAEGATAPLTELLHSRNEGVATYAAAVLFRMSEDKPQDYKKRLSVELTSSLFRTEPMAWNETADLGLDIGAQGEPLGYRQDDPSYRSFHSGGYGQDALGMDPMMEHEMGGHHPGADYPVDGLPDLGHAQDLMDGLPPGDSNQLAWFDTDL
Test: Fluorescence polarization IC50 (beta-catenin / 5FAM-TCF4 10-53 competition)
Type: binding
Details: fluorescence polarization

SMILES: CC(=O)N1CCC[C@]12CC=CCCCC1(CCCC=CCCCOC(=O)N3CC[C@@](C(=O)N[C@@H](Cc4cccc(C(F)(F)F)c4)C(=O)N[C@@H](Cc4csc5ccccc45)C(=O)N[C@@H](CCC(N)=O)C(N)=O)(C3)NC(=O)[C@H](CC(N)=O)NC(=O)[C@H](Cc3ccccc3)NC(=O)[C@H](C)NC(=O)[C@H](C)NC(=O)[C@H]([C@@H](C)O)NC(=O)[C@H](CC(N)=O)NC1=O)NC(=O)[C@H](CC(C)(C)C)NC(=O)[C@H](CC(=O)O)NC2=O (stereo partly drawn) [I-1997, Ac-PL3-Asp-Npg-B5-Asn-Thr-Ala-Ala-Phe-Asn-PyrS2-3F3MeF-BztA-Gln-NH2]
IC50 (read-out: beta-Catenin FP IC50): 3390 nM

SMILES: CC(C)C[C@@H]1NC(=O)[C@H](Cc2ccccc2)NC(=O)[C@H](C)NC(=O)[C@H](C)NC(=O)[C@H](CN(CC(=O)O)CC(F)(F)F)NC(=O)[C@H](CC(=O)O)NC(=O)C2(CCCCCCCCOC(=O)N3CC[C@@](C(=O)N[C@@H](Cc4ccsc4)C(=O)N[C@@H](Cc4csc5ccccc45)C(=O)N[C@@H](CCC(N)=O)C(N)=O)(C3)NC1=O)CCCCCCOc1cccc(c1)CC(=O)N1CCC[C@H]1C(=O)N[C@@H](CC(=O)O)C(=O)N[C@@H](CC(C)(C)C)C(=O)N2 (stereo partly drawn) [I-2405, ProPAc3OAllyl-Asp-Npg-B5-Asp-TfeGA-Ala-Ala-Phe-Leu-PyrS2-3Thi-BztA-Gln-NH2]
IC50 (read-out: beta-Catenin FP IC50): 568 nM

SMILES: CC(=O)N1CCC[C@]12CC=CCCCC1(CCCC=CCCCOC(=O)N3CC[C@@](C(=O)N[C@@H](Cc4ccsc4)C(=O)N[C@@H](Cc4csc5ccccc45)C(=O)N[C@@H](CCC(N)=O)C(N)=O)(C3)NC(=O)[C@H](CC(N)=O)NC(=O)[C@H](Cc3ccccc3)NC(=O)[C@H](C)NC(=O)[C@H](C)NC(=O)[C@H]([C@@H](C)O)NC(=O)[C@H](CC(N)=O)NC1=O)NC(=O)[C@H](CC(C)(C)C)NC(=O)[C@H](Cc1cccc(C(=O)O)c1)NC2=O (stereo partly drawn) [I-2135, Ac-PL3-3COOHF-Npg-B5-Asn-Thr-Ala-Ala-Phe-Asn-PyrS2-3Thi-BztA-Gln-NH2]
IC50 (read-out: beta-Catenin FP IC50): 3410 nM

SMILES: CC(=O)N1CCC[C@]12CC=CCCCC1(CCCC=CCCCOC(=O)N3CC[C@@](C(=O)N[C@@H](Cc4ccccc4)C(=O)N[C@@H](Cc4csc5ccccc45)C(N)=O)(C3)NC(=O)[C@H](CC(N)=O)NC(=O)[C@H](Cc3ccccc3)NC(=O)[C@H](C)NC(=O)[C@H](CCCCNC(C)C)NC(=O)[C@H](CCC(N)=O)NC(=O)[C@H](CC(=O)O)NC1=O)NC(=O)[C@H](CC1CCCCC1)NC(=O)[C@H](CC(N)=O)NC2=O (stereo partly drawn) [I-2073, Ac-PL3-Asn-Cha-B5-Asp-Gln-iPrLys-Ala-Phe-Asn-PyrS2-Phe-BztA-NH2]
IC50 (read-out: beta-Catenin FP IC50): 398 nM

SMILES: CC(=O)N1CCC[C@]12CC=CCCCC1(CCCC=CCCCOC(=O)N3CC[C@@](C(=O)N[C@@H](Cc4ccccc4)C(=O)N[C@@H](Cc4csc5ccccc45)C(=O)N[C@@H](CCC(N)=O)C(N)=O)(C3)NC(=O)[C@H](CC(C)C)NC(=O)[C@H](Cc3ccccc3)NC(=O)[C@H](C)NC(=O)[C@H](CCCCNC(C)C)NC(=O)[C@H](CCCCN)NC(=O)[C@H](CC(=O)O)NC1=O)NC(=O)[C@H](CC1CCCCC1)NC(=O)[C@H](CC(N)=O)NC2=O (stereo partly drawn) [I-2346, Ac-PL3-Asn-Cha-B5-Asp-Lys-iPrLys-Ala-Phe-Leu-PyrS2-Phe-BztA-Gln-NH2]
IC50 (read-out: beta-Catenin FP IC50): 422 nM

SMILES: CC(=O)N1CCC[C@]12CC=CCCCC1(CCCC=CCCCCOC(=O)N3CC[C@@](C(=O)N[C@@H](Cc4ccsc4)C(=O)N[C@@H](Cc4csc5ccccc45)C(=O)N[C@@H](CCC(N)=O)C(N)=O)(C3)NC(=O)[C@H](CC(N)=O)NC(=O)[C@H](Cc3ccccc3)NC(=O)[C@H](C)NC(=O)[C@H](C)NC(=O)[C@H]([C@@H](C)O)NC(=O)[C@H](CC(N)=O)NC1=O)NC(=O)[C@H](CC(C)(C)C)NC(=O)[C@H](CC(=O)O)NC2=O (stereo partly drawn) [I-2199, Ac-PL3-Asp-Npg-B5-Asn-Thr-Ala-Ala-Phe-Asn-PyrS3-3Thi-BztA-Gln-NH2]
IC50 (read-out: beta-Catenin FP IC50): 927 nM

SMILES: CC(=O)N1CCC[C@]12CCCCCCC1(CCCCCCCCOC(=O)N3CC[C@@](C(=O)N[C@@H](Cc4ccccc4C(F)(F)F)C(=O)N[C@@H](Cc4csc5ccccc45)C(=O)N[C@@H](CCC(N)=O)C(N)=O)(C3)NC(=O)[C@H](CC(C)C)NC(=O)[C@H](Cc3ccccc3)NC(=O)[C@H](C)NC(=O)[C@H](C)NC(=O)[C@H](Cc3cccc(C(=O)O)c3)NC(=O)[C@H](CC(=O)O)NC1=O)NC(=O)[C@H](CC(C)(C)C)NC(=O)[C@H](CC(=O)O)NC2=O (stereo partly drawn) [I-1604, Ac-PL3-Asp-Npg-B5-Asp-3COOHF-Ala-Ala-Phe-Leu-PyrS2-2F3MeF-BztA-Gln-NH2]
IC50 (read-out: beta-Catenin FP IC50): 123 nM

SMILES: CC(=O)N1CCC[C@]12CC=CCCCC1(CCCC=CCCCOC(=O)N3CC[C@@](C(=O)N[C@@H](Cc4ccsc4)C(=O)N[C@@H](Cc4csc5ccccc45)C(=O)N[C@@H](CCC(N)=O)C(N)=O)(C3)NC(=O)[C@H](CC(N)=O)NC(=O)[C@H](Cc3ccccc3)NC(=O)[C@H](C)NC(=O)[C@H](C)NC(=O)[C@H]([C@@H](C)O)NC(=O)[C@H]([C@@H](C)O)NC1=O)NC(=O)[C@H](CC(C)(C)C)NC(=O)[C@H](CC(=O)O)NC2=O (stereo partly drawn) [I-2149, Ac-PL3-Asp-Npg-B5-Thr-Thr-Ala-Ala-Phe-Asn-PyrS2-3Thi-BztA-Gln-NH2]
IC50 (read-out: beta-Catenin FP IC50): 7180 nM

Now those with a lower IC50 (read-out: beta-Catenin FP IC50), led by results:

IC50 (read-out: beta-Catenin FP IC50): 105 nM
SMILES: CC(=O)N1CCC[C@]12CC=CCCCC1(CCCC=CCCCOC(=O)N3CC[C@@](C(=O)N[C@@H](Cc4ccsc4)C(=O)N[C@@H](Cc4csc5ccccc45)C(=O)N[C@@H](CCC(N)=O)C(N)=O)(C3)NC(=O)[C@H](CC(C)C)NC(=O)[C@H](Cc3cccc(C(=O)O)c3)NC(=O)[C@H](C)NC(=O)[C@H](C)NC(=O)[C@H](Cc3c[nH]c4ccccc34)NC(=O)[C@H](CC(=O)O)NC1=O)NC(=O)[C@H](CC(C)(C)C)NC(=O)[C@H](CC(=O)O)NC2=O (stereo partly drawn) [I-2129, Ac-PL3-Asp-Npg-B5-Asp-Trp-Ala-Ala-3COOHF-Leu-PyrS2-3Thi-BztA-Gln-NH2]

IC50 (read-out: beta-Catenin FP IC50): 102 nM
SMILES: CC(C)C[C@@H]1NC(=O)[C@H](Cc2ccccc2)NC(=O)[C@H](C)NC(=O)[C@H](C)NC(=O)[C@H](Cc2cccc(C(=O)O)c2)NC(=O)[C@H](CC(=O)O)NC(=O)C2(CCCCCCCCOC(=O)N3CC[C@@](C(=O)N[C@@H](Cc4ccccc4C(F)(F)F)C(=O)N[C@@H](Cc4csc5ccccc45)C(=O)N[C@@H](CCC(N)=O)C(N)=O)(C3)NC1=O)CCCCCC[C@@]13CCCN1C(=O)CCCCC[C@H](NC(=O)[C@H](CC(=O)O)NC3=O)C(=O)N2 (stereo partly drawn) [I-2530, 4pentenyl-PL3-Asp-AllylGly-B5-Asp-3COOHF-Ala-Ala-Phe-Leu-PyrS2-2F3MeF-BztA-Gln-NH2]

IC50 (read-out: beta-Catenin FP IC50): 85 nM
SMILES: CC(=O)N1CCC[C@]12CC=CCCCC1(CCCC=CCCCCOC(=O)N3CC(C(=O)N[C@@H](Cc4ccsc4)C(=O)N[C@@H](Cc4csc5ccccc45)C(=O)N[C@@H](CCC(N)=O)C(N)=O)(C3)NC(=O)[C@H](CC(C)C)NC(=O)[C@H](Cc3ccccc3)NC(=O)[C@H](C)NC(=O)[C@H](C)NC(=O)[C@H](Cc3cccc(C(=O)O)c3)NC(=O)[C@H](CC(=O)O)NC1=O)NC(=O)[C@H](CC(C)(C)C)NC(=O)[C@H](CC(=O)O)NC2=O (stereo partly drawn) [I-2612, Ac-PL3-Asp-Npg-B5-Asp-3COOHF-Ala-Ala-Phe-Leu-Az3-3Thi-BztA-Gln-NH2]

IC50 (read-out: beta-Catenin FP IC50): 67 nM
SMILES: CC(=O)N1CCC[C@]12CC=CCCCC1(CCCC=CCCCOC(=O)N3CC[C@@](C(=O)N[C@@H](Cc4ccsc4)C(=O)N[C@@H](Cc4c[nH]c5cccc(F)c45)C(=O)N[C@@H](CCC(N)=O)C(N)=O)(C3)NC(=O)[C@H](CC(C)C)NC(=O)[C@H](Cc3ccccc3)NC(=O)[C@H](C)NC(=O)[C@H](C)NC(=O)[C@H](CC(=O)O)NC(=O)[C@H](CC(=O)O)NC1=O)NC(=O)[C@H](CC(C)(C)C)NC(=O)[C@H](CC(=O)O)NC2=O (stereo partly drawn) [I-2179, Ac-PL3-Asp-Npg-B5-Asp-Asp-Ala-Ala-Phe-Leu-PyrS2-3Thi-4FW-Gln-NH2]

IC50 (beta-catenin, read-out: FP EC50): 57 nM
IC50 (read-out: beta-Catenin FP IC50): 57 nM
SMILES: CC(=O)N1CCC[C@]12CC=CCCCC1(CCCC=CCCCOC(=O)N3CC[C@@](C(=O)N[C@@H](Cc4ccccc4Cl)C(=O)N[C@@H](Cc4csc5ccccc45)C(=O)N[C@@H](CC(C)C)C(N)=O)(C3)NC(=O)[C@H](CC(C)C)NC(=O)[C@H](Cc3ccccc3)NC(=O)[C@H](C)NC(=O)[C@H](C)NC(=O)[C@H](CC(=O)O)NC(=O)[C@H](CC(=O)O)NC1=O)NC(=O)[C@H](CC(C)(C)C)NC(=O)[C@H](CC(=O)O)NC2=O (stereo partly drawn) [I-1416, Ac-PL3-Asp-Npg-B5-Asp-Asp-Ala-Ala-Phe-Leu-PyrS2-2C1F-BztA-Leu-NH2]

IC50 (read-out: beta-Catenin FP IC50): 9 nM
SMILES: CC(=O)N(CC(=O)O)C[C@@H]1NC(=O)[C@H](CC(=O)O)NC(=O)C2(CCCC=CCCCOC(=O)N3CC[C@@](C(=O)N[C@@H](Cc4ccsc4)C(=O)N[C@@H](Cc4csc5ccccc45)C(=O)N[C@@H](CCC(N)=O)C(N)=O)(C3)NC(=O)[C@H](CC(C)C)NC(=O)[C@H](Cc3ccccc3)NC(=O)[C@H](C)NC(=O)[C@H](C)NC1=O)CCCC=CC[C@]1(CCCN1C(C)=O)C(=O)N[C@@H](CC(=O)O)C(=O)N[C@@H](CC(C)(C)C)C(=O)N2 (stereo partly drawn) [I-1729, Ac-PL3-Asp-Npg-B5-Asp-[Ac]GA-Ala-Ala-Phe-Leu-PyrS2-3Thi-BztA-Gln-NH2]
